Experimental data published in EP0745595A1, “3-(3-Aryloxyphenyl)-1-(substituted methyl)-s-triazine-2,4,6-oxo or thiotrione herbicidal agents” (American Cyanamid Company, priority 1995, dated 1996).

Tests used:
Type in all cases: in vivo
[1] = system: CHENOPODIUM ALBUM, L.; assay: Postemergence herbicidal evaluation, CHEAL (Lambsquarters, Common)
Procedure, shortened: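 Seedlings of common lambsquarters (Chenopodium album) were raised in jiffy flats for roughly two weeks, then sprayed postemergence through a nozzle at 40 psi with test compound dispersed in 50/50 acetone/water containing 0.5% TWEEN®20 surfactant. Plants were kept on greenhouse benches under standard care and rated visually on a 0-9 scale versus controls.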

[2] = system: ABUTILON THEOPHRASTI, MEDIC.; assay: Postemergence herbicidal evaluation, ABUTH (Velvetleaf)
Procedure, shortened: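 Velvetleaf (Abutilon theophrasti) seedlings were raised in jiffy flats for about two weeks and then sprayed postemergence. The test compound was dispersed in a 50/50 acetone/water mixture containing 0.5% TWEEN®20 and applied through a nozzle operating at 40 psi. Plants were kept on greenhouse benches and rated 0-9 four to five weeks after treatment.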

[3] = system: CASSIA OBTUSIFOLIA, L.; assay: Postemergence herbicidal evaluation, CASOB (Sicklepod); design: key to CASOB rating / Herbicidal effect rating, CASOB / CASOB: 0-9 visual rating scale vs untreated control
Procedure, shortened: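 Two-week-old seedlings sprayed with compound in 50/50 acetone/water plus 0.5% TWEEN 20 at about 0.125–0.500 kg/ha via nozzle at 40 psi. Kept in greenhouse; rated visually 4–5 weeks after treatment on a 0–9 scale versus untreated control, averaging repeat tests.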

[4] = system: AMBROSIA ARTEMISIIFOLIA, L.; assay: Postemergence herbicidal evaluation, AMBEL (Ragweed, Common);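 further: higher means more injury with 8 approaching complete kill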
Procedure, shortened: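 Common ragweed (Ambrosia artemisiifolia) seedlings were raised in jiffy flats for roughly two weeks, then sprayed postemergence through a nozzle at 40 psi with the test compound dispersed in 50/50 acetone/water carrying 0.5% TWEEN®20. The plants were kept on greenhouse benches under conventional care. Four to five weeks later, injury was rated visually on a 0-9 scale, and repeat tests were averaged.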

[5] = system: TRITICUM AESTIVUM, CV. APOLLO; assay: Postemergence herbicidal evaluation, TRZAWO (Wheat, Winter, CV. APOLLO);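 further: higher means more injury with 8 approaching complete kill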
Procedure, shortened: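 Wheat seedlings, raised in jiffy flats for roughly two weeks, were sprayed postemergence with test compound dispersed in a 50/50 acetone/water mixture containing 0.5% TWEEN®20 surfactant, delivered through a nozzle at 40 psi. Plants were then kept on greenhouse benches under conventional care. Four to five weeks after treatment they were rated visually on a 0-9 scale against an untreated control, and ratings from repeated tests were averaged.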

[6] = system: CHENOPODIUM ALBUM, L.; assay: Preemergence herbicidal evaluation, CHEAL (Lambsquarters, Common); details: for CHEAL herbicidal rating: rated four to five weeks after treatment
Procedure, shortened: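 Preemergence, greenhouse: seed + potting soil sown on ~1 inch soil in cups; aqueous acetone spray, ~0.125–0.50 kg/ha equivalent; rated 0-9 vs control at 4–5 wk.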

[7] = system: IPOMOEA SPP.; assay: Postemergence herbicidal evaluation, IPOSS (Morningglory spp.)
Procedure, shortened: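 Seedlings of morningglory (Ipomoea spp.) were raised in jiffy flats for roughly two weeks. They were then sprayed postemergence through a nozzle at 40 psi with test compound dispersed in 50/50 acetone/water containing 0.5% TWEEN®20 surfactant. Plants were kept on greenhouse benches under standard care and visually rated 0-9 against controls four to five weeks after treatment.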

[8] = system: SETARIA VIRIDIS, (L) BEAU; assay: Postemergence herbicidal evaluation, SETVI (Foxtail, Green); design: key to SETVI rating / Herbicidal effect rating, SETVI / SETVI: 0-9 visual rating scale vs untreated control
Procedure, shortened: (§1)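 Greenhouse postemergence test. Seedlings (~2 wk) sprayed at 40 psi; dose ~0.125–0.500 kg/ha in acetone/water (1:1), 0.5% TWEEN 20. Scored 0–9 at 4–5 wk.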

[9] = system: ECHINOCHLOA CRUS-GALLI, (L) BEAU; assay: Postemergence herbicidal evaluation, ECHCG (Barnyardgrass); design: key to ECHCG rating / Herbicidal effect rating, ECHCG / ECHCG: 0-9 visual rating scale vs untreated control
Procedure, shortened: as §1

[10] = system: ORYZA SATIVA, L. TEBONNET; assay: Rice tolerance to post-transplant applications under flooded paddy conditions, ORYSAT (Rice, Tebonnet); details: for Herbicidal effect rating, ORYSAT: post-transplant rice, 3-4 weeks after treatment; for ORYSAT: post-transplanted rice
Procedure, shortened: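 Two ten-day-old Tebonnet rice seedlings were transplanted into silt loam and kept flooded 1.5 to 3 cm deep. Three days after transplanting, the flood surface received the compound in aqueous/acetone 50/50 v/v at about 0.5, 0.25, 0.125 or 0.063 kg/ha. Injury was rated visually on a 0-9 scale versus control after 3-4 weeks.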

[11] = system: ZEA MAYS L.; assay: Postemergence herbicidal evaluation, ZEAMX (Corn, Field);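 further: higher means more injury with 8 approaching complete kill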
Procedure, shortened: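 Corn seedlings were raised in jiffy flats for roughly two weeks, then sprayed postemergence with the test material dispersed in 50/50 acetone/water containing 0.5% TWEEN®20 surfactant, using a nozzle at 40 psi. Plants were kept on greenhouse benches under standard care and visually rated on a 0-9 scale four to five weeks after treatment.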

COC(=O)Cn1c(=O)n(C)c(=O)n(-c2cc(Oc3ccc(C(F)(F)F)cc3Cl)ccc2Cl)c1=O [Compound 39, Methyl 3-{[2-chloro-5-(2-chloro-α,α,α-trifluoro-p-tolyl)oxy]phenyl}tetrahydro-5-methyl-2,4,6-trioxo-s-triazine-1(2H)-acetate] was tested, and the CHEAL ([1]; Rate 0.016 kg/ha) was 6.0, the CHEAL ([1]; Rate 0.032 kg/ha) was 8.0 and the CHEAL ([1]; Rate 0.063 kg/ha) was 9.0. For the same compound, the CHEAL ([1]; Rate 0.125 kg/ha) was 9.0, the CHEAL rating ([1]; Rate 0.125 kg/ha) was 9.0 and the CHEAL ([1]; Rate 0.250 kg/ha) was 9.0. It also gave a CHEAL rating ([1]; Rate 0.250 kg/ha) of 9.0, a CHEAL ([1]; Rate 0.500 kg/ha) of 9.0 and a CHEAL rating ([1]; Rate 0.500 kg/ha) of 9.0. For the same compound, the ABUTH ([2]; Rate 0.016 kg/ha) was 7.0, the ABUTH ([2]; Rate 0.032 kg/ha) was 8.5 and the ABUTH ([2]; Rate 0.063 kg/ha) was 9.0. For the same compound, the ABUTH ([2]; Rate 0.125 kg/ha) was 9.0, the ABUTH rating ([2]; Rate 0.125 kg/ha) was 9.0 and the ABUTH ([2]; Rate 0.250 kg/ha) was 9.0. It also gave an ABUTH rating ([2]; Rate 0.250 kg/ha) of 9.0, an ABUTH ([2]; Rate 0.500 kg/ha) of 9.0 and an ABUTH rating ([2]; Rate 0.500 kg/ha) of 9.0. For the same compound, the CASOB ([3]; Rate 0.016 kg/ha) was 6.0, the CASOB ([3]; Rate 0.032 kg/ha) was 9.0 and the CASOB ([3]; Rate 0.063 kg/ha) was 9.0. For the same compound, the CASOB ([3]; Rate 0.125 kg/ha) was 9.0, the CASOB rating ([3]; Rate 0.125 kg/ha) was 9.0 and the CASOB ([3]; Rate 0.250 kg/ha) was 9.0. For the same compound, the CASOB rating ([3]; Rate 0.250 kg/ha) was 9.0, the CASOB ([3]; Rate 0.500 kg/ha) was 9.0 and the CASOB rating ([3]; Rate 0.500 kg/ha) was 9.0. For the same compound, the AMBEL ([4]; Rate 0.016 kg/ha) was 4.5, the AMBEL ([4]; Rate 0.032 kg/ha) was 6.5 and the AMBEL ([4]; Rate 0.063 kg/ha) was 7.5. For the same compound, the AMBEL ([4]; Rate 0.125 kg/ha) was 8.5, the AMBEL ([4]; Rate 0.250 kg/ha) was 9.0 and the AMBEL ([4]; Rate 0.500 kg/ha) was 9.0. It also gave a TRZAWO ([5]; Rate 0.016 kg/ha) of 2.8, a TRZAWO ([5]; Rate 0.032 kg/ha) of 3.8 and a TRZAWO ([5]; Rate 0.063 kg/ha) of 4.5. For the same compound, the TRZAWO ([5]; Rate 0.125 kg/ha) was 4.8, the TRZAWO ([5]; Rate 0.250 kg/ha) was 6.0 and the TRZAWO ([5]; Rate 0.500 kg/ha) was 5.5. For the same compound, the CHEAL ([6]; Rate 0.063 kg/ha) was 9.0, the CHEAL ([6]; Rate 0.125 kg/ha) was 9.0 and the CHEAL herbicidal rating ([6]; Rate 0.125 kg/ha) was 9.0. For the same compound, the CHEAL ([6]; Rate 0.250 kg/ha) was 9.0, the CHEAL herbicidal rating ([6]; Rate 0.250 kg/ha) was 9.0 and the CHEAL ([6]; Rate 0.500 kg/ha) was 9.0. The CHEAL herbicidal rating ([6]; Rate 0.500 kg/ha) was 9.0, the IPOSS ([7]; Rate 0.016 kg/ha) was 5.5 and the IPOSS ([7]; Rate 0.032 kg/ha) was 7.0. The IPOSS ([7]; Rate 0.063 kg/ha) was 9.0, the IPOSS ([7]; Rate 0.125 kg/ha) was 9.0 and the IPOSS rating ([7]; Rate 0.125 kg/ha) was 9.0. For the same compound, the IPOSS ([7]; Rate 0.250 kg/ha) was 9.0, the IPOSS rating ([7]; Rate 0.250 kg/ha) was 9.0 and the IPOSS ([7]; Rate 0.500 kg/ha) was 9.0. For the same compound, the IPOSS rating ([7]; Rate 0.500 kg/ha) was 9.0, the SETVI ([8]; Rate 0.016 kg/ha) was 2.5 and the SETVI ([8]; Rate 0.032 kg/ha) was 4.5. For the same compound, the SETVI ([8]; Rate 0.063 kg/ha) was 3.5, the SETVI ([8]; Rate 0.125 kg/ha) was 4.5 and the SETVI ([8]; Rate 0.250 kg/ha) was 8.0. For the same compound, the SETVI ([8]; Rate 0.500 kg/ha) was 9.0, the ECHCG ([9]; Rate 0.016 kg/ha) was 1.5 and the ECHCG ([9]; Rate 0.032 kg/ha) was 3.0. It also gave an ECHCG ([9]; Rate 0.063 kg/ha) of 1.0, an ECHCG ([9]; Rate 0.125 kg/ha) of 4.5 and an ECHCG ([9]; Rate 0.250 kg/ha) of 7.5. The ECHCG ([9]; Rate 0.500 kg/ha) was 8.0, the “Herbicidal effect rating, ORYSAT” value ([10]; 0.063 kg/ha) was 2.5 and the “Herbicidal effect rating, ORYSAT” value ([10]; 0.125 kg/ha) was 3.5. For the same compound, the “Herbicidal effect rating, ORYSAT” value ([10]; 0.250 kg/ha) was 5.0, the “Herbicidal effect rating, ORYSAT” value ([10]; 0.500 kg/ha) was 5.3 and the ORYSAT ([10]; Rate 0.031 kg/ha) was 1.8. For the same compound, the ORYSAT ([10]; Rate 0.063 kg/ha) was 2.5, the ORYSAT ([10]; Rate 0.125 kg/ha) was 3.5 and the ORYSAT ([10]; Rate 0.250 kg/ha) was 5.0. For the same compound, the ZEAMX ([11]; Rate 0.016 kg/ha) was 3.3, the ZEAMX ([11]; Rate 0.032 kg/ha) was 4.3 and the ZEAMX ([11]; Rate 0.063 kg/ha) was 4.8. For the same compound, the ZEAMX ([11]; Rate 0.125 kg/ha) was 6.5, the ZEAMX ([11]; Rate 0.250 kg/ha) was 8.0 and the ZEAMX ([11]; Rate 0.500 kg/ha) was 8.5.
